Test results: patent US20260373165A1, “PHARMACEUTICAL COMBINATIONS AND COMPOSITIONS, AND METHODS OF USE THEREOF” (SHENZHEN HIGHTIDE BIOPHARMACEUTICAL LTD., priority 2022, published 2026)

Columns and labels:
[1] = Example 1: oral glucose tolerance test (OGTT), blood glucose; type: in vivo, mouse (C57BL/6J male, 60% HFD DIO); conditions: HTD1801 200 mpk, empagliflozin 10 mpk (reduced after week 2), semaglutide 10 nmol/kg s.c. Q3D
Source text: (§1) After 5-week-old C57BL/6J male mice were acclimatized for 1 week, the weight of each mouse was weighed, and the mice were randomly divided into a control group and a model group by taking the weight as a main index, where 12 mice in the control group were fed with common feed (CD), and the mice in the remaining model group were fed with 60% high-fat feed (60% HFD) for 10-12 weeks to construct a DIO obesity model, with the average body weight being not less than 40 g. The mice fed with 60% HFD were grabbed and acclimatized with a solvent for 3 days, where the acclimatization with a solvent was performed by oral gavage of 0.5% CMC-Na, twice daily.
(§2) The food intake, the body weight, the body fat ratio, and the insulin level of the mice were respectively measured, followed by fasting blood glucose level, and the mice were randomly grouped according to Table 3 by taking the body weight as an index, and the remaining ungrouped mice were euthanized. After grouping, each group of mice was administered according to Table 3, the day of administration was defined as DO, and the administration volume of each drug was determined based on the results obtained by the calculation of 5 μL/g× mouse body weight (g).
(§3) For the combined administration group, the total administration volume was the sum of the administration volumes of two single drugs, and the administration sequence and the administration time were kept consistent at each administration. The mice were continuously fed with high-fat feed during the administration period until the administration was finished. During administration, 2 food intakes were measured per week (difference in feed weights at an interval of 24 h was measured); each group of mice was weighed once daily; postprandial blood glucose levels were measured weekly; blood was collected from the tail tip on day 6 and day 20, respectively, so as to measure fasting blood glucose levels once (blood was collected after fasting from 8:00 am to […]); on day 25 of administration, the body fat ratio and the lean mass of each group of mice were measured by MRI (the measurement period was kept consistent with that before grouping); after 4 weeks of administration intervention (day 28), each group of mice was fasted for 6 h and subjected to OGTT (0 min, 15 min, 30 min, 60 min, 90 min, 120 min) to detect their blood glucose levels, and meanwhile subjected to blood sampling via submaxillary vein (0 min, 15 min, 30 min, about 30 μL of blood sampled each time), and then the blood plasma was separated for detecting the insulin level by ELISA, where the separated blood plasma was more than 10 μL; the next day (D29) at the end of administration was set as the test endpoint, and the mice were fasted for 6 h in the morning and subjected to fasting blood glucose level measurement; subsequently, the mice were euthanized with CO2, blood was collected from the heart of each mouse for analysis, and each group of mice was dissected; the liver and subcutaneous, epididymal and mesenteric fat was collected, photographed and weighed, respectively.

[2] = Example 1: body weight and body weight change rate, combined administration of HTD1801 and empagliflozin in DIO obesity model; type: in vivo, mouse (C57BL/6J male, 60% HFD DIO); conditions: semaglutide 10 nmol/kg s.c. Q3D
Source text: as §1, §2, §3

[3] = day 0 (baseline), HTD1801 300 mpk, empagliflozin 15 mpk gavage QD
[4] = day 1, HTD1801 300 mpk, empagliflozin 15 mpk gavage QD
[5] = day 2, HTD1801 300 mpk, empagliflozin 15 mpk gavage QD
[6] = day 3, HTD1801 300 mpk, empagliflozin 15 mpk gavage QD
[7] = day 4, HTD1801 300 mpk, empagliflozin 15 mpk gavage QD
[8] = day 5, HTD1801 300 mpk, empagliflozin 15 mpk gavage QD
[9] = day 6, HTD1801 300 mpk, empagliflozin 15 mpk gavage QD
[10] = day 7, HTD1801 300 mpk, empagliflozin 15 mpk gavage QD
[11] = day 8, HTD1801 300 mpk, empagliflozin 15 mpk gavage QD
[12] = day 9, HTD1801 300 mpk, empagliflozin 15 mpk gavage QD
[13] = day 10, HTD1801 300 mpk, empagliflozin 15 mpk gavage QD
[14] = day 11, HTD1801 300 mpk, empagliflozin 15 mpk gavage QD
[15] = day 12, HTD1801 300 mpk, empagliflozin 15 mpk gavage QD
[16] = day 13, HTD1801 300 mpk, empagliflozin 15 mpk gavage QD
[17] = day 14, HTD1801 300 mpk, empagliflozin 15 mpk gavage QD
[18] = day 15, HTD1801 200 mpk, empagliflozin 10 mpk (reduced after week 2) gavage QD
[19] = day 16, HTD1801 200 mpk, empagliflozin 10 mpk (reduced after week 2) gavage QD
[20] = day 17, HTD1801 200 mpk, empagliflozin 10 mpk (reduced after week 2) gavage QD
[21] = day 18, HTD1801 200 mpk, empagliflozin 10 mpk (reduced after week 2) gavage QD
[22] = day 19, HTD1801 200 mpk, empagliflozin 10 mpk (reduced after week 2) gavage QD
[23] = day 20, HTD1801 200 mpk, empagliflozin 10 mpk (reduced after week 2) gavage QD
[24] = day 21, HTD1801 200 mpk, empagliflozin 10 mpk (reduced after week 2) gavage QD
[25] = day 22, HTD1801 200 mpk, empagliflozin 10 mpk (reduced after week 2) gavage QD
[26] = day 23, HTD1801 200 mpk, empagliflozin 10 mpk (reduced after week 2) gavage QD
[27] = day 24, HTD1801 200 mpk, empagliflozin 10 mpk (reduced after week 2) gavage QD
[28] = day 25, HTD1801 200 mpk, empagliflozin 10 mpk (reduced after week 2) gavage QD
[29] = day 26, HTD1801 200 mpk, empagliflozin 10 mpk (reduced after week 2) gavage QD
[30] = day 27, HTD1801 200 mpk, empagliflozin 10 mpk (reduced after week 2) gavage QD
[31] = day 28, HTD1801 200 mpk, empagliflozin 10 mpk (reduced after week 2) gavage QD

SMILES: COc1ccc2cc3[n+](cc2c1OC)CCc1cc2c(cc1-3)OCO2.C[C@H](CCC(=O)[O-])[C@H]1CC[C@H]2[C@@H]3[C@@H](O)C[C@@H]4C[C@H](O)CC[C@]4(C)[C@H]3CC[C@]12C [HTD1801, berberine ursodeoxycholate]
- OGTT blood glucose level ([1]; day 28, 0 min): 10.65 mmol/L
- OGTT blood glucose level ([1]; day 28, 15 min): 19.88 mmol/L
- OGTT blood glucose level ([1]; day 28, 30 min): 20.04 mmol/L
- OGTT blood glucose level ([1]; day 28, 60 min): 23.48 mmol/L
- OGTT blood glucose level ([1]; day 28, 90 min): 19.88 mmol/L
- OGTT blood glucose level ([1]; day 28, 120 min (head printed "12 0min")): 22.22 mmol/L
- body weight change (in words) ([2]; after 14 days, reduced dose: HTD1801 200 mpk, empagliflozin 10 mpk): slight rebound
- Body weight (mean) [2, 3]: 43.6 g
- Body weight change rate [2, 3]: 0.0%
- Body weight (mean) [2, 4]: 42.9 g
- Body weight change rate [2, 4]: −1.6%
- Body weight (mean) [2, 5]: 43.1 g
- Body weight change rate [2, 5]: −1.2%
- Body weight (mean) [2, 6]: 42.3 g
- Body weight change rate [2, 6]: −3.0%
- Body weight (mean) [2, 7]: 42.3 g
- Body weight change rate [2, 7]: −2.9%
- Body weight (mean) [2, 8]: 42.5 g
- Body weight change rate [2, 8]: −2.6%
- Body weight (mean) [2, 9]: 42.0 g
- Body weight change rate [2, 9]: −3.8%
- Body weight (mean) [2, 10]: 41.5 g
- Body weight change rate [2, 10]: −4.9%
- Body weight (mean) [2, 11]: 40.8 g
- Body weight change rate [2, 11]: −6.2%
- Body weight (mean) [2, 12]: 40.7 g
- Body weight change rate [2, 12]: −6.6%
- Body weight (mean) [2, 13]: 40.7 g
- Body weight change rate [2, 13]: −6.5%
- Body weight (mean) [2, 14]: 40.6 g
- Body weight change rate [2, 14]: −6.8%
- Body weight (mean) [2, 15]: 40.8 g
- Body weight change rate [2, 15]: −6.3%
- Body weight (mean) [2, 16]: 40.4 g
- Body weight change rate [2, 16]: −7.1%
- Body weight (mean) [2, 17]: 39.7 g
- Body weight change rate [2, 17]: −8.7%
- Body weight (mean) [2, 18]: 39.5 g
- Body weight change rate [2, 18]: −9.0%
- Body weight (mean) [2, 19]: 39.6 g
- Body weight change rate [2, 19]: −8.8%
- Body weight (mean) [2, 20]: 39.4 g
- Body weight change rate [2, 20]: −9.3%
- Body weight (mean) [2, 21]: 38.9 g
- Body weight change rate [2, 21]: −10.3%
- Body weight (mean) [2, 22]: 38.9 g
- Body weight change rate [2, 22]: −10.3%
- Body weight (mean) [2, 23]: 39.2 g
- Body weight change rate [2, 23]: −8.4%
- Body weight (mean) [2, 24]: 39.5 g
- Body weight change rate [2, 24]: −7.8%
- Body weight (mean) [2, 25]: 39.7 g
- Body weight change rate [2, 25]: −7.2%
- Body weight (mean) [2, 26]: 40.2 g
- Body weight change rate [2, 26]: −6.0%
- Body weight (mean) [2, 27]: 40.5 g
- Body weight change rate [2, 27]: −5.4%
- Body weight (mean) [2, 28]: 40.7 g
- Body weight change rate [2, 28]: −4.8%
- Body weight (mean) [2, 29]: 40.1 g
- Body weight change rate [2, 29]: −6.5%
- Body weight (mean) [2, 30]: 40.2 g
- Body weight change rate [2, 30]: −6.2%
- Body weight (mean) [2, 31]: 39.5 g
- Body weight change rate [2, 31]: −7.9%
- body weight change / weight loss effect (in words) ([2]; within 14 days, HTD1801 300 mpk, empagliflozin 15 mpk gavage QD): continuously decreased over time
